Experimental data taken from publication PMC10353390, “Biological and Structural Analyses of New Potent Allosteric Inhibitors of HIV-1 Integrase” (Antimicrobial Agents and Chemotherapy, 2023).
Like-named read-outs stand apart in the source and are kept apart here.

Key:
[1] = tested on: HIV-1 strains resistant to INSTIs, NRTIs, NNRTIs or PIs; format: cell-based; settings: for Fold change in EC50 relative to NL4-3, E92Q / Fold change in EC50 relative to NL4-3, G140S / Fold change in EC50 relative to NL4-3, G140S/Q148H / Fold change in EC50 relative to NL4-3, N155H / Fold change in EC50 relative to NL4-3, Q148H / Fold change in EC50 relative to NL4-3, Y143R / Fold change in EC50 relative to NL4-3, E92Q/N155H (pat.) / Fold change in EC50 relative to NL4-3, G140S/Q148H (pat.) / Fold change in EC50 relative to NL4-3, T97A/N155H (pat.): INSTI-resistant; for Fold change in EC50 relative to NL4-3, E92Q / Fold change in EC50 relative to NL4-3, G140S / Fold change in EC50 relative to NL4-3, G140S/Q148H / Fold change in EC50 relative to NL4-3, N155H / Fold change in EC50 relative to NL4-3, Q148H / Fold change in EC50 relative to NL4-3, Y143R / Fold change in EC50 relative to NL4-3, K103N/Y181C: NL4-3 background; for Fold change in EC50 relative to NL4-3, E92Q/N155H (pat.) / Fold change in EC50 relative to NL4-3, G140S/Q148H (pat.) / Fold change in EC50 relative to NL4-3, T97A/N155H (pat.): primary patient-derived strain; for Fold change in EC50 relative to NL4-3, NLAY351717: NRTI-resistant clone; for Fold change in EC50 relative to NL4-3, NLAY351753: NRTI/NNRTI-resistant clone; for Fold change in EC50 relative to NL4-3, K103N/Y181C: NRTI/NNRTIs group; for Fold change in EC50 relative to NL4-3, ARP-4595 / Fold change in EC50 relative to NL4-3, ARP-4596 / Fold change in EC50 relative to NL4-3, ARP-11801 / Fold change in EC50 relative to NL4-3, ARP-11803 / Fold change in EC50 relative to NL4-3, ARP-11807 / Fold change in EC50 relative to NL4-3, ARP-11808: PI-resistant virus
Protocol: To this end, we used both recombinant viruses constructed by introducing described drug resistance mutations into NL4-3 HIV-1 clone as well as drug-resistant clinical HIV-1 isolates.
(§1) MT4 cells growing exponentially at the density of 10^6/mL were infected with HIV-1 strain NL4-3 at a multiplicity of infection (MOI) of 0.001 for 2 h in the presence of different concentrations of compounds, and the CellTiter-Glo luminescent reagent (Promega) was used to quantify cell viability as described previously ([12]).

[2] = tested on: NL4-3 HIV-1 strain; experiment: Multiple-round infection assay in MT4 cells, NL4-3; format: cell-based
[3] = tested on: NL4-3 HIV-1 with INLAI-selected IN single point mutations; format: cell-based
[4] = tested on: HXB2 HIV-1 strain; experiment: Multiple-round infection assay in MT4 cells, HXB2; format: cell-based; settings: Human immunodeficiency virus 1, HXB2, MT4, read-out: EC50 HXB2
Protocol: Antiretroviral activity of BDM-2 and its analogs was first evaluated in lymphoblastoid cell line MT4 and in primary human T lymphocytes using NL4-3 and HXB2 laboratory HIV-1 isolates.
as §1

[5] = Cytotoxicity assay in MT4 cells; format: cell-based; settings: human, MT4 cells (proliferating human T-cell line), CellTiter-Glo
Text: Growth inhibition was monitored in a proliferating human T-cell line (MT4) with different concentrations of compounds, using the CellTiter-Glo luminescent reagent (Promega), as previously described ([12]).

[6] = tested on: lab-adapted and clinical HIV-1 isolates; experiment: Infection assays in primary T CD4+ lymphocytes; format: cell-based; settings: Human immunodeficiency virus 1, Lymphocyte
[7] = tested on: VSV-G-pseudotyped NL4-3Δenv-luc; experiment: microbe, parasite or virus in culture; format: cell-based, HIV-1; settings: Human immunodeficiency virus 1, NL43, MT4, read-out: EC50 in single-round infection

Compound | Fold change in EC50 relative to NL4-3, E92Q [1] | Fold change in EC50 relative to NL4-3, G140S [1] | Fold change in EC50 relative to NL4-3, G140S/Q148H [1] | Fold change in EC50 relative to NL4-3, N155H [1] | Fold change in EC50 relative to NL4-3, Q148H [1] | Fold change in EC50 relative to NL4-3, Y143R [1] | Fold change in EC50 relative to NL4-3, E92Q/N155H (pat.) [1] | Fold change in EC50 relative to NL4-3, G140S/Q148H (pat.) [1] | Fold change in EC50 relative to NL4-3, T97A/N155H (pat.) [1] | Fold change in EC50 relative to NL4-3, NLAY351717 [1] | Fold change in EC50 relative to NL4-3, NLAY351753 [1] | Fold change in EC50 relative to NL4-3, K103N/Y181C [1] | Fold change in EC50 relative to NL4-3, ARP-4595 [1] | Fold change in EC50 relative to NL4-3, ARP-4596 [1] | Fold change in EC50 relative to NL4-3, ARP-11801 [1] | Fold change in EC50 relative to NL4-3, ARP-11803 [1] | Fold change in EC50 relative to NL4-3, ARP-11807 [1] | Fold change in EC50 relative to NL4-3, ARP-11808 [1] | also measured
Cc1cn([C@H]2C[C@H](N=[N+]=[N-])[C@@H](CO)O2)c(=O)[nH]c1=O [AZT, azidothymidine] | 1 | 1 | 1 | 1 | 1 | 1 | 1 | 1 | 4 | 150 | 210 | 0.1 | 2 | 1 | 1 | 2 | 2 | 5 | 
CC(C)CN(C[C@@H](O)[C@H](Cc1ccccc1)NC(=O)O[C@H]1CO[C@H]2OCC[C@H]21)S(=O)(=O)c1ccc(N)cc1 [DRV, darunavir] |  |  | 1 |  |  |  |  |  |  | 1 | 1 | 1 | 1 | 1 | 31 | 24 | 12 | 240 | 
O=C1Nc2ccc(Cl)cc2[C@@](C#CC2CC2)(C(F)(F)F)O1 [EFV, efavirenz] | 1 | 1 | 1 | 1 | 1 | 1 | 1 | 1 | 2 | 2 | 39 | 51 | 1 | 1 | 0.5 | 1 | 2 | 1 | 
COc1cc2c(cc1Cc1cccc(Cl)c1F)c(=O)c(C(=O)O)cn2[C@H](CO)C(C)C [EVG, elvitegravir] | 24 | 2 | 2500 | 12 | 3 | 2 | 200 | 2000 | 440 | 1 | 1 | 1 | 1 | 1 | 1 | 1 | 2 | 2 | EC50 ([2]; Human immunodeficiency virus 1, NL43, MT4, wild type NL4-3, Table 9, read-out: EC50 NL4-3): 2.2 ± 1.2 nM; EC50 fold change compared to wild type NL4-3, A128T ([3]; NL4-3 IN A128T): 1; EC50 fold change compared to wild type NL4-3, H171Q ([3]; NL4-3 IN H171Q): 1; EC50 fold change compared to wild type NL4-3, N222K ([3]; NL4-3 IN N222K): 1; EC50 fold change compared to wild type NL4-3, T174I ([3]; NL4-3 IN T174I): 1; EC50 fold change compared to wild type NL4-3, Y99H ([3]; NL4-3 IN Y99H): 1
CC(C)(C)NC(=O)[C@@H]1CN(Cc2cccnc2)CCN1C[C@@H](O)C[C@@H](Cc1ccccc1)C(=O)N[C@H]1c2ccccc2C[C@H]1O [IDV, indinavir] | 1 |  | 1 | 1 |  | 1 |  |  |  | 1 | 1 | 1 | 5 | 8 | 92 | 260 | 36 | 59 | 
Cc1nnc(C(=O)NC(C)(C)c2nc(C(=O)NCc3ccc(F)cc3)c(O)c(=O)n2C)o1 [RAL, raltegravir] |  |  |  |  |  |  |  |  |  |  |  |  |  |  |  |  |  |  | EC50 [4]: 8.7 ± 6 nM; EC50 ([2]; Human immunodeficiency virus 1, NL43, MT4, read-out: EC50 NL4-3): 14 ± 9 nM; EC90 ([2]; Human immunodeficiency virus 1, NL43, MT4, read-out: EC90 NL4-3): 28 ± 14 nM; CC50 [5]: 438 ± 29 µM; EC50 ([6]; read-out: EC50 33913N (B)): 2.1 ± 0.1 nM; EC50 ([6]; read-out: EC50 HXB2 (B)): 2.6 ± 1.4 nM; EC50 ([6]; read-out: EC50 KER2008 (A)): 6.7 ± 4 nM; EC50 ([6]; read-out: EC50 NL4-3 (B)): 4.9 ± 2.3 nM; EC50 ([6]; read-out: EC50 NP1525 (CRF01_AE)): 4 ± 1.7 nM; EC50 ([6]; read-out: EC50 NP1538 (B)): 1.7 ± 1.9 nM; EC50 [7]: 3.5 ± 1 nM
Cc1cc(/C=C/C#N)cc(C)c1Nc1ccnc(Nc2ccc(C#N)cc2)n1 [RPV, rilpivirine] |  | 1 | 1 |  | 1 |  | 1 | 1 | 1 | 1 | 0.4 | 3 | 1 | 1 | 0.4 | 1 | 1 | 1 | 
